Reference: patent publication US20230365602A1, “COMPOUND FOR USE IN THE TREATMENT OF PROTOZOAL DISEASES AND PROCESS FOR PRODUCTION OF SAID COMPOUND” (QUADREL S.R.L., priority 2020, published 2023)
Several values for one entry are separate records, joined by “and”; a condition that tells them apart may be missing. Identical values can stand only once. Entries after “also recorded” stand apart in the source; their conditions may differ. Like-named read-outs stand apart in the source and are kept apart here.

Key:
[1] = tested on: L. infantum (MHOM/MA/67/ITMAP-263) intracellular amastigotes; experiment: Anti-parasitic activity against L. infantum intracellular amastigotes (infection with axenic amastigotes luciferase positive); type: cell-based
[2] = tested on: L. amazonensis intracellular amastigotes; experiment: Anti-leishmanial activity, L. amazonensis intracellular amastigotes; type: cell-based; conditions: Leishmania amazonensis
Source text: The in vitro antiparasitic activity of compound 5-cyclopentadecylpentyl (2-(trimethylammonio)ethyl) phosphate (19) against L. infantum (2 species), L. amazonensis, L. donovani and L. major is presented in Table 3, as well as the toxicity against the human monocytic cell Line THP1 and PMA-differentiated THP-1 cells.

CYP2C9 = CYP2C9 (Homo sapiens, UniProt P11712); experiment: Early toxicity: CYP2C9 inhibition; type: in vitro ADME
CYP3A4 = CYP3A4 (Homo sapiens, UniProt P08684); experiment: Early toxicity: CYP3A4 inhibition; type: in vitro ADME; conditions: human, 10 μM
W1-38 = experiment: Early toxicity: W1-38 cell growth; type: cell-based; conditions: for Avg % Cell growth W1-38: Table 5
HDAC6 = HDAC6 (Homo sapiens, UniProt Q9UBN7); experiment: HDAC6 activity inhibition; type: biochemical
HDAC8 = HDAC8 (Homo sapiens, UniProt Q9BY41); experiment: HDAC8 activity inhibition; type: biochemical
[3] = Snapshot pharmacokinetics in plasma after oral gavage; type: in vivo, mice
Experimental: Pharmacology of 5-cyclopentadecylpentyl (2-(trimethylammonio)ethyl) phosphate (19) in mice.
Blood samples were collected from the tail vein at 0, 0.5, 0.75, 1, 3, 24 and 72 hours into heparinized tubes. Moreover, biodistribution of the molecule, 72h after administration, was determined in several organs of the treated mice, namely brain, liver, spleen, kidney, heart and bone marrow. […] J Chromatogr B, 865: 55-62) by liquid chromatography mass spectrometry (LC-MS/MS).

Leishmania infantum = experiment: Efficacy in mice infected with Leishmania infantum, 21-day treatment, limiting dilution assay; type: in vivo, BALB/c mice
Experimental: The rationale for the choice of four doses was to enable dose dependent information in activity and toxicity. The wait period of 15 days after treatment end enabled the follow up of reappearance of infection and also the determination of the time dependent compound elimination. […] Three days after the last treatment the mice were euthanized and parasite burden (log number of parasites/mg of organ) was evaluated by limiting dilution assay, essentially as described in Tavares. J. et al (Methods Mol Biol, 2019; 1971:289-301), in the spleen (FIG. 2B) and in the liver (FIG. 2C). Data represent the mean±SD, *p<0.05, **p<0.01 (One way ANOVA with Dunnett's test) in comparison with the untreated group.

[4] = tested on: T. brucei brucei Lister 427 expressing red-shifted luciferase; experiment: Efficacy in HAT mice model (acute T. b. brucei infection), live imaging; type: in vivo, BALB/c mice; conditions: for infection outcome (words): 50 mg/kg/day PO, 7 consecutive days
Source text: (B) Overall evolution of parasite burden assessed by live imaging using IVIS Lumina LT (Perkin Elmer) during and after treatment. T. b. brucei Lister 427 expressing red-shifted luciferase was used in these experiments. DX is the day post treatment. (C) Quantification of bioluminescent signal plotted as average radiance (p/s/cm^2/sr) during and after treatment.
In addition, 5-cyclopentadecylpentyl (2-(trimethylammonio) ethyl) phosphate (19) was effective per os in vivo against T. brucei acute model of infection and also against the long lasting chronic infection model. […] The daily treatment with 50 mg/kg for 13 days lead to a significant decrease of infection and increase in animal survival. […] Altogether 5-cyclopentadecylpentyl (2-(trimethylammonio) ethyl) phosphate (19) is effective in the BALB/c infection model for T. brucei being a possible therapeutical option both for HAT stage I and II.
T. brucei brucei Lister 427 expressing red-shifted luciferase was used in these experiments as described for L. infantum in vivo infection in (Graça N A et al., Antimicrob Agents Chemother. 2016 Mar. 25; 60(4):2532-6). The overall evolution of parasite burden assessed by live imaging using IVIS Lumina LT (Perkin Elmer) during and after treatment. […] To confirm this possibility, the treated mice immune system was suppressed with cyclophosphamide. […] The advantage over pentamidine is the oral administration of compound 19 versus ip administration of pentamidine.

T. b. brucei GVR35 = experiment: Stage II HAT mice model, live imaging; type: in vivo
[5] = Gel formation in saline solutions of NaCl; type: physicochemical; conditions: same conditions
Experimental: This effect is more pronounced at concentrations between 7 and 40 mg/mL at a temperature range between 20° C. and 40° C., preferably at ambient temperature. The homogeneity of the product facilitates homogeneity of dosing, i.e, variability among doses is lower, easy administration of the compound and higher patient acceptability.

Aurora B kinase = Aurora B kinase (Homo sapiens, UniProt Q96GD4); experiment: Early toxicity: Aurora B kinase inhibition; type: biochemical; conditions: Table 5
[6] = tested on: Salmonella TA100 (base pair substitutions); experiment: Ames mutagenicity testing, TA100; type: cell-based
Experimental: The test has been performed in duplicate as separate experiments (Table 9). Two different Salmonella strains were tested; TA98 (frameshift mutations) and TA100 (base pair substitutions, primarily at one of the GC pairs). Values above 15 represent genotoxicity.

hERG channel = hERG channel (Homo sapiens, UniProt Q12809); experiment: Early toxicity: hERG inhibition
[7] = Table 5, read-out: Avg % inhibition CYP3A4
[8] = mean ± SD, Table 4a, read-out: % inhibition CYP3A4
[9] = BALB/c (Compound 19), NMRI (miltefosine), mouse, in vivo, po, 20 mg/kg
[10] = BALB/c, mouse, in vivo, po, 20 mg/kg

Sequence of CYP3A4 (P08684 whole entry): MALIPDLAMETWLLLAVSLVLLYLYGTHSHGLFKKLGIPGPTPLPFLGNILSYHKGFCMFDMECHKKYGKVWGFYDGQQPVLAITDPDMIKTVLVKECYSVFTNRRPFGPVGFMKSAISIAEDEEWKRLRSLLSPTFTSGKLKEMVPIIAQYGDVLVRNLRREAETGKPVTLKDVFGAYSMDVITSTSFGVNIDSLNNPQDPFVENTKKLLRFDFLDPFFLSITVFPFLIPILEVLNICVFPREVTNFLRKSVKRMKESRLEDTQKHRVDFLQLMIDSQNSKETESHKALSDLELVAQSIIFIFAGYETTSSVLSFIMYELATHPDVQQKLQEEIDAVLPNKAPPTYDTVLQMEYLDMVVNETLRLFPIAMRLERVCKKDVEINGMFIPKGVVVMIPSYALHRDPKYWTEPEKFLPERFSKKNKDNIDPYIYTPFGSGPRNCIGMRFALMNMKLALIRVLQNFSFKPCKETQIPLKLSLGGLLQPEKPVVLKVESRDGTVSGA
Sequence of CYP2C9 (P11712 whole entry): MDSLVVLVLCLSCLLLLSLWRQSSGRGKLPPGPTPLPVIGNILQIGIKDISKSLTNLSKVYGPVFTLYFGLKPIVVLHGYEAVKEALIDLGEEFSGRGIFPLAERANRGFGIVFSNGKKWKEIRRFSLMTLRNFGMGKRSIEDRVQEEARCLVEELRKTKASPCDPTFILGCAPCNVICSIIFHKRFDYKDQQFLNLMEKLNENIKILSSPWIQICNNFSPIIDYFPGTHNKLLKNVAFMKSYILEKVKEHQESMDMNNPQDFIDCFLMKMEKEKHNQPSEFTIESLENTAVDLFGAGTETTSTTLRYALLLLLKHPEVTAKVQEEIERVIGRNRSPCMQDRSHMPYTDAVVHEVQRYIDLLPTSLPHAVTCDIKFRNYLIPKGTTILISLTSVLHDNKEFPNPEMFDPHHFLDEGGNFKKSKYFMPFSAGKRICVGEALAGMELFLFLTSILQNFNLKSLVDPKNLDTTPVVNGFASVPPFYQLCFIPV
Sequence of hERG channel (Q12809 whole entry): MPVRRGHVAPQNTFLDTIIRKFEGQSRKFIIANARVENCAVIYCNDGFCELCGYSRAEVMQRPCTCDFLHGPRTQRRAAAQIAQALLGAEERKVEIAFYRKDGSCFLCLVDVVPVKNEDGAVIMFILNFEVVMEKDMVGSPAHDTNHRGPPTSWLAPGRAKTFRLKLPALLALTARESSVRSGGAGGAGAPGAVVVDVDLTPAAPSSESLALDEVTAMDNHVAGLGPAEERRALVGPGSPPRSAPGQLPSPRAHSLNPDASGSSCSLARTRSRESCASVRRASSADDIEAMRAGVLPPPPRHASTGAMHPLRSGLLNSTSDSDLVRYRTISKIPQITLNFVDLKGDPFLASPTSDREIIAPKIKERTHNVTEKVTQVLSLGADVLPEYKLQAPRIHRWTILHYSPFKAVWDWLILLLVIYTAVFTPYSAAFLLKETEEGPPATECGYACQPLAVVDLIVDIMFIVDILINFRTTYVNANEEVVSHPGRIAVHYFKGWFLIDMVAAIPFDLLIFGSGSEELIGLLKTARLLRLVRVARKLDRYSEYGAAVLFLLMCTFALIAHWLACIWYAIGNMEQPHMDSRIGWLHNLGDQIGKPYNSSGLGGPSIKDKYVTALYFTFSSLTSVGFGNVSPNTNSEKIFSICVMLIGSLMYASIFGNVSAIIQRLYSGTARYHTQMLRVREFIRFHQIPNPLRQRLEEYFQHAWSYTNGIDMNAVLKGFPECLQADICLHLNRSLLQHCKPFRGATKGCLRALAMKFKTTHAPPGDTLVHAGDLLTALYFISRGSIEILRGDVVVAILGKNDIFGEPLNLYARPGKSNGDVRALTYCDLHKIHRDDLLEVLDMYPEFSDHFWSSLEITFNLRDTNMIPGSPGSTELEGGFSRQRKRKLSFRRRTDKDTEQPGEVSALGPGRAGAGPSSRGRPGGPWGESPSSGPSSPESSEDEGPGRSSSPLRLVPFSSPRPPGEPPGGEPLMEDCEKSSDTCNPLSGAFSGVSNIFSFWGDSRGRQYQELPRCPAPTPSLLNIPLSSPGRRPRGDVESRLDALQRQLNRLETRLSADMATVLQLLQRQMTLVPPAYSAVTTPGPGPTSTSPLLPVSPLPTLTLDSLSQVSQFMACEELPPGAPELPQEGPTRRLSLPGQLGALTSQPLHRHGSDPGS
Sequence of HDAC8 (Q9BY41 whole entry, species assumed): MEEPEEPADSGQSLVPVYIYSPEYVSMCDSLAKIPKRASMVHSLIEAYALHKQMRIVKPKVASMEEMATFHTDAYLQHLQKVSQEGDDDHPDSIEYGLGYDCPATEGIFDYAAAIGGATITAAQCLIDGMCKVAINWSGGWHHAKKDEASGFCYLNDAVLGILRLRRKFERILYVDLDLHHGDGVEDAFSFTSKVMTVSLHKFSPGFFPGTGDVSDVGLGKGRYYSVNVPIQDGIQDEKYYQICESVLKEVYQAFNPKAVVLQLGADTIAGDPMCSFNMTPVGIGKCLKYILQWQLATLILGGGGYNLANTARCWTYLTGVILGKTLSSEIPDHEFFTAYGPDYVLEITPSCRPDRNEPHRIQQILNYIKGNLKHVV
Sequence of HDAC6 (Q9UBN7 whole entry, species assumed): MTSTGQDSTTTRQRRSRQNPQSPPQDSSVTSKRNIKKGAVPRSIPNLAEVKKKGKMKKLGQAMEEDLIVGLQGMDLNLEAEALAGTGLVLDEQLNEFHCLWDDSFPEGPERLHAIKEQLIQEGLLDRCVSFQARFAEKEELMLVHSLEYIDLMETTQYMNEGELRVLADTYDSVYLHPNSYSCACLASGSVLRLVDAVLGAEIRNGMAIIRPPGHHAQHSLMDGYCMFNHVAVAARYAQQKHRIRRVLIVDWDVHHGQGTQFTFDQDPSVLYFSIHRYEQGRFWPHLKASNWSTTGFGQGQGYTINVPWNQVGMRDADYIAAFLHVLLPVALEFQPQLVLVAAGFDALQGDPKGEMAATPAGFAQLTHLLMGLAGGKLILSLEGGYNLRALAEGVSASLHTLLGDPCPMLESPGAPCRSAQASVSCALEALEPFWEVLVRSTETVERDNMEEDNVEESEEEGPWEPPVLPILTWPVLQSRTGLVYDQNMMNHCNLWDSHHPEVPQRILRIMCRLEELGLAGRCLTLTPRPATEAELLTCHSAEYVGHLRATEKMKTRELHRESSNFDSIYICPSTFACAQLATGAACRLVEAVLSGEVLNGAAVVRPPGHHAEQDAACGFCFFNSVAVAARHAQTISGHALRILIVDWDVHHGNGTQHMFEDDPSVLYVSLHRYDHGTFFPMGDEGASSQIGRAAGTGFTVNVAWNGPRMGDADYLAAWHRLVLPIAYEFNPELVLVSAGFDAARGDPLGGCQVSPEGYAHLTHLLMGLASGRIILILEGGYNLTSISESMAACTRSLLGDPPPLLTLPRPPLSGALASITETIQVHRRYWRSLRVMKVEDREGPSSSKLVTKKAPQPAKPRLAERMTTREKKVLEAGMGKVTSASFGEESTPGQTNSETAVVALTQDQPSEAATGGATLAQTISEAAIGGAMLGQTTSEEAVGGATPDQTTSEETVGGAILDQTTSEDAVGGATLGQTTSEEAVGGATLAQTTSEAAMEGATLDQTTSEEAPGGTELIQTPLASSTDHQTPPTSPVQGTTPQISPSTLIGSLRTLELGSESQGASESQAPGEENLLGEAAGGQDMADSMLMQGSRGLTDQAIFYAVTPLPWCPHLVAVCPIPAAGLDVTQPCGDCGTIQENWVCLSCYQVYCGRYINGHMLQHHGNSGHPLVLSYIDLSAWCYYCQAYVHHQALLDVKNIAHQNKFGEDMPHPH
Sequence of Aurora B kinase (Q96GD4 whole entry): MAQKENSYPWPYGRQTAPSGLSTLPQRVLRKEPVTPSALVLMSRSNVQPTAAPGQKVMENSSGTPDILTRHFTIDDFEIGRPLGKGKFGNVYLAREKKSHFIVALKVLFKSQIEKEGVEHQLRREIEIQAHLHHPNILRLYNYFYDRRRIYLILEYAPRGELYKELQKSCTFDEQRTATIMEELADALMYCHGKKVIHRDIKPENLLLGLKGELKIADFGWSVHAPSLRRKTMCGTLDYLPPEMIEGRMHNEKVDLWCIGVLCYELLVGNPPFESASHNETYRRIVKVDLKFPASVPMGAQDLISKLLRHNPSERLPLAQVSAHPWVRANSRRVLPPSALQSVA

## CCCCCCCCCCCCCCCCOP(=O)([O-])OCC[N+](C)(C)C [Miltefosine, hexadecylphosphocholine, reference compound]
[1]; Leishmania infantum, read-out: Dose Response Curves IC50 ± SD (μM)
  IC50: 2.51 ± 1.73 µM
[1]; Leishmania infantum, read-out: L. infantum intracellular amastigotes (MHOM/MA/67/ITMAP-263) IC50 ± SEM (μM)
  IC50: 3.2 ± 1.4 µM
[2]
  IC50: 14.2 µM
CYP2C9; 10 μM, Table 5
  Avg % inhibition CYP2C9: −0.80 ± 38.33 (10 μM) %
CYP2C9; 10 μM, mean ± SD, Table 4a
  % inhibition CYP2C9: −0.8 ± 38.32%
CYP3A4; [7]
  inhibition at 10 µM: 8.39 ± 8.99%
CYP3A4; [8]
  inhibition at 10 µM: 8.39 ± 8.99%
W1-38; 10 μM
  Avg % Cell growth W1-38: 113.50 ± 26.66 (10 μM) %
W1-38; at 1 μM
  % cell growth W1-38: 113.5 ± 26.66%
HDAC6; 10 μM
  inhibition of the activity of HDAC6: did not inhibit
HDAC8; 10 μM
  inhibition of the activity of HDAC8: did not inhibit
[3]; [9]
  AUC(0-inf): 2.4e+06 ng·h/mL and 5960 µM·h
  Cmax: 30600 ng/mL and 75.1 µM
  Tmax: 24 h
  half-life: 43.3 ± 5.5 h
[3]; BALB/c, mouse, in vivo, 20 mg/kg
  Ke (h − 1): 0.016 ± 0.002 h − 1
[3]; [10]
  AUC(0-inf): 2.4e+06 ng·h/mL and 5960 µM·h
  Cmax: 30600 ng/mL and 75.1 µM
  Tmax: 24 h
  half-life: 43.3 ± 5.5 h
Leishmania infantum; miltefosine 2.5 mg/kg, 21 consecutive days
  parasite burden reduction, liver: 98%
Leishmania infantum; miltefosine 10 mg/kg, oral gavage, 21 consecutive days
  parasite burden in the spleen: one of the animals presented detected parasites in the spleen
Leishmania infantum; miltefosine 20 mg/kg, oral gavage, 21 consecutive days
  parasite burden: maintained parasite burden under the detection limit
Leishmania infantum; miltefosine 20, 10, 5 mg/kg, 21 consecutive days
  parasite burden in the liver: parasite burdens under the detection limit
Leishmania infantum; miltefosine lower doses (5 and 2.5 mg/kg), 21 consecutive days
  parasite burden reduction, spleen: more than 99%
[4]
  infection outcome (words): no in vivo activity
[4]; listed as miltefosine
  infection outcome (words): did not work at all
T. b. brucei GVR35; miltefosine treated animals, sacrificed after 7 treatments
  infection outcome (words): no reduction in infection
T. b. brucei GVR35; miltefosine treated infected animals
  weight loss associated to the treatment: constant weight loss
[5]
  gel formation: not observed

## C[N+](C)(C)CCOP(=O)([O-])OCCCCCC1CCCCCCCCCCCCCC1 [Compound 19, 5-cyclopentadecylpentyl (2-(trimethylammonio)ethyl) phosphate]
[1]; Leishmania infantum, 10 μM, Table 1, read-out: Single Dose Assay 10 μM Mean Inhibitory Activity (%) ± SD
  inhibition at 10 µM: 78 ± 2%
[1]; Leishmania infantum, Table 1, read-out: Dose Response Curves IC50 ± SD
  IC50: 1.4 ± 0.1 µM
[1]; Leishmania infantum, Table 3, read-out: L. infantum intracellular amastigotes (MHOM/MA/67/ITMAP-263) IC50 ± SEM
  IC50: 1.4 ± 0.1 µM
[1]; PMA-differentiated THP-1 CC50 / IC50 L. infantum MHOM/MA/67/ITMAP-263, Table 3
  Selectivity Index CC50/IC50 or NOAEL/IC50: >71
[1]; THP-1 toxicity / L. infantum IC50, Table 1
  Selectivity Index CC50/IC50 or NOAEL/IC50: >71
[2]
  IC50: 5.4 µM
CYP2C9; human, mean ± SD, Table 4a
  inhibition at 10 µM: -17.5 ± 2.31%
CYP3A4; [7]
  inhibition at 10 µM: -17.6 ± 8.89%
CYP3A4; [8]
  inhibition at 10 µM: 17.6 ± 8.89%
W1-38; 10 μM
  % cell growth W1-38: 95.66 ± 19.68%
  Avg % Cell growth W1-38: 95.66 ± 19.68 (10 μM) %
Aurora B kinase
  inhibition at 10 µM: -9.92 ± 8.99%
HDAC6; 100 μM
  inhibition of the activity of HDAC6: does not inhibit
HDAC8; 100 μM
  effect on HDACr: not considered significant
[6]; 3.125 μM
  Ames mutagenicity TA100 (values above 15 represent genotoxicity): 7.5 ± 0.71
[6]; 6.25 μM
  Ames mutagenicity TA100 (values above 15 represent genotoxicity): 9.0 ± 0
[6]; 12.5 μM
  Ames mutagenicity TA100 (values above 15 represent genotoxicity): 14.0 ± 1.41
[6]; 25 μM
  Ames mutagenicity TA100 (values above 15 represent genotoxicity): 7.0 ± 2.83
[6]; 50 μM
  Ames mutagenicity TA100 (values above 15 represent genotoxicity): 10.0 ± 0
[6]; 100 μM
  Ames mutagenicity TA100 (values above 15 represent genotoxicity): 8.5 ± 4.95
[6]; up to 100 μM
  mutagenicity, TA100: does not exhibit mutagenicity
[3]; 20 mg/kg oral gavage
  Cmax in plasma relative to the EC50 for L. infantum in vitro: 10 fold
[3]; BALB/c (Compound 19), NMRI (miltefosine), mouse, plasma, healthy mice, 20 mg/kg oral gavage, Table 10, read-out: AUC (0-∞)
  AUC(0-inf): 967 ± 471 µg·h/mL
[3]; BALB/c (Compound 19), NMRI (miltefosine), mouse, plasma, healthy mice, 20 mg/kg oral gavage, Table 10, read-out: AUC (0-∞) (μM h/mL)
  AUC(0-inf): 2090 µM·h
[3]; BALB/c (Compound 19), NMRI (miltefosine), mouse, plasma, healthy mice, 20 mg/kg oral gavage, Table 10, read-out: Cmax
  Cmax: 33.4 µM
[3]; BALB/c (Compound 19), NMRI (miltefosine), mouse, plasma, healthy mice, 20 mg/kg oral gavage, Table 10, read-out: Cmax (μg/mL)
  Cmax: 15.4 ± 9.3 µg/mL
[3]; BALB/c (Compound 19), NMRI (miltefosine), mouse, plasma, healthy mice, 20 mg/kg oral gavage, Table 10, read-out: t1/2 (converted)
  half-life: 17.4 ± 4.2 h
[3]; BALB/c (Compound 19), NMRI (miltefosine), mouse, healthy mice, 20 mg/kg oral gavage, plasma, Table 10, read-out: tmax
  Tmax: 24 h
[3]; healthy BALB/c mice, 20 mg/kg gavage, Table 13
  Ke (h − 1): 0.049 h − 1
[3]; healthy mice, 20 mg/kg oral gavage, Table 10
  Ke: 0.049 h⁻¹
[3]; mouse, plasma, po, healthy BALB/c mice, 20 mg/kg gavage, Table 13, read-out: AUC (0-∞)
  AUC(0-inf): 967 ± 471 µg·h/mL
[3]; mouse, plasma, po, healthy BALB/c mice, 20 mg/kg gavage, Table 13, read-out: AUC (0-∞) (μM h/mL)
  AUC(0-inf): 2090 µM·h
[3]; mouse, plasma, po, healthy BALB/c mice, 20 mg/kg gavage, Table 13, read-out: Cmax
  Cmax: 33.4 µM
[3]; mouse, plasma, po, healthy BALB/c mice, 20 mg/kg gavage, Table 13, read-out: Cmax (μg/mL)
  Cmax: 15.4 ± 9.3 µg/mL
[3]; mouse, plasma, po, healthy BALB/c mice, 20 mg/kg gavage, Table 13, read-out: tmax
  Tmax: 24 h
[3]; mouse, plasma, po, healthy BALB/c mice, 20 mg/kg gavage, Table 13, read-out: t½ (converted)
  half-life: 17.4 ± 4.2 h
Leishmania infantum; compound 19 2.5 mg/kg every other day for 21 days
  average reduction of parasite burden, spleen: 98%
Leishmania infantum; compound 19 every other day for 21 days, 20, 10, 5, 2.5 mg/kg, except 2.5 mg/kg in the spleen
  parasite burden, spleen and liver: maintained parasite burden under the detection limit
[4]
  infection outcome (words): eliminated the infection; also recorded: full clearance of infection
[4]; 3 weeks after treatment, also after cyclophosphamide immune suppression
  relapse after treatment: no relapse was detected
T. b. brucei GVR35; 50 mg/kg daily for 13 days, compared to beginning of treatment (day 21)
  average reduction of signal (average radiance) in the brain region: 99.96%
T. b. brucei GVR35; 50 mg/kg/day PO, 13 days
  reduction of infection: > 99%
T. b. brucei GVR35; after 4 treatments (day 25), 50 mg/kg daily
  signal in the region of the brain lost: 99.95%
T. b. brucei GVR35; compound 19 50 mg/kg/day PO
  overall and brain infection: able to significantly reduce the overall infection and also in the brain
[5]
  gel formation: homogeneous gel product
hERG channel; Table 4b
  Flag for Interference, hERG: (no)
hERG channel; human
  inhibition at 10 µM: 4.06 ± 2.07%
